From publication PMC4222603, “Dual inhibition of HIV-1 replication by integrase-LEDGF allosteric inhibitors is predominant at the post-integration stage” (Retrovirology, 2013)

system: HIV-1 NL4-3; assay: Antiviral assay in MT-4 cells, multiple-round infection, CellTiter-Glo; assay type: cell-based; conditions: Human immunodeficiency virus 1, NL43, MT4; Table 3; mean of two independent experiments; read-out: EC50 NL4-3 WT
Description: MT-4 cells growing exponentially at the density of 10^6/mL were infected with HIV-1 strain NL4-3 at a MOI (multiplicity of infection) of 0.001 for 2 h. The cells were washed with PBS and aliquoted, using 100 μL fresh complete RPMI, into 96-well white plates (Corning) in the presence of different concentrations of compounds.

| Molecule | EC50 [nM] |
| --- | --- |
| Cc1cn([C@H]2C[C@H](N=[N+]=[N-])[C@@H](CO)O2)c(=O)[nH]c1=O [AZT, Zidovudine] | 140 |
| COc1cc2c(cc1Cc1cccc(Cl)c1F)c(=O)c(C(=O)O)cn2[C@H](CO)C(C)C [EVG, Elvitegravir] | 3 |
| CC(C)(C)NC(=O)[C@@H]1CN(Cc2cccnc2)CCN1C[C@@H](O)C[C@@H](Cc1ccccc1)C(=O)N[C@H]1c2ccccc2C[C@H]1O [IDV, Indinavir] | 32 |
| Cc1ccnc2c1NC(=O)c1cccnc1N2C1CC1 [NVP, Nevirapine] | 160 |

same assay, conditions: Human immunodeficiency virus 1, NL43; MT4 cells; mean of six independent experiments; read-out: NL4-3 EC50 Multiple-round

| Molecule | EC50 [nM] |
| --- | --- |
| O=C1Nc2ccc(Cl)cc2[C@@](C#CC2CC2)(C(F)(F)F)O1 [EFV, Efavirenz, reference compound] | 1.3 ± 0.2 |
| COc1cc2c(cc1Cc1cccc(Cl)c1F)c(=O)c(C(=O)O)cn2[C@H](CO)C(C)C [EVG, Elvitegravir] | 0.86 ± 0.4 |
| CC(C)(C)NC(=O)[C@@H]1CN(Cc2cccnc2)CCN1C[C@@H](O)C[C@@H](Cc1ccccc1)C(=O)N[C@H]1c2ccccc2C[C@H]1O [IDV, Indinavir] | 36 |
| Cc1ccnc2c1NC(=O)c1cccnc1N2C1CC1 [NVP, Nevirapine] | 86 ± 12 |
| CC(C)(C)NC(=O)[C@@H]1C[C@@H]2CCCC[C@@H]2CN1C[C@@H](O)[C@H](Cc1ccccc1)NC(=O)[C@H](CC(N)=O)NC(=O)c1ccc2ccccc2n1 [SQV, Saquinavir, reference compound] | 13 |

system: VSV-G-pseudotyped NL4-3Δenv-luc; assay: microbe, parasite or virus in culture; assay type: cell-based, HIV-1; conditions: not given

| Molecule | SR/MR ratio | NL4-3 EC50 Single-round |
| --- | --- | --- |
| O=C1Nc2ccc(Cl)cc2[C@@](C#CC2CC2)(C(F)(F)F)O1 [EFV, Efavirenz, reference compound] | 0.9 |  |
| COc1cc2c(cc1Cc1cccc(Cl)c1F)c(=O)c(C(=O)O)cn2[C@H](CO)C(C)C [EVG, Elvitegravir] | 0.5 |  |
| CC(C)(C)NC(=O)[C@@H]1CN(Cc2cccnc2)CCN1C[C@@H](O)C[C@@H](Cc1ccccc1)C(=O)N[C@H]1c2ccccc2C[C@H]1O [IDV, Indinavir] |  | Inactive |
| CC(C)(C)NC(=O)[C@@H]1C[C@@H]2CCCC[C@@H]2CN1C[C@@H](O)[C@H](Cc1ccccc1)NC(=O)[C@H](CC(N)=O)NC(=O)c1ccc2ccccc2n1 [SQV, Saquinavir, reference compound] |  | Inactive |

same assay, conditions: Human immunodeficiency virus 1, NL43, MT4, read-out: NL4-3 EC50 Single-round

| Molecule | EC50 [nM] |
| --- | --- |
| Cc1cn([C@H]2C[C@H](N=[N+]=[N-])[C@@H](CO)O2)c(=O)[nH]c1=O [AZT, Zidovudine] | 2.5 ± 0.3 |
| O=C1Nc2ccc(Cl)cc2[C@@](C#CC2CC2)(C(F)(F)F)O1 [EFV, Efavirenz, reference compound] | 1.2 ± 0.4 |
| COc1cc2c(cc1Cc1cccc(Cl)c1F)c(=O)c(C(=O)O)cn2[C@H](CO)C(C)C [EVG, Elvitegravir] | 0.42 ± 0.05 |
| Cc1ccnc2c1NC(=O)c1cccnc1N2C1CC1 [NVP, Nevirapine] | 41 ± 8 |

system: NL4-3 Protease L10R, M46I, L63P, V82T, I84V; assay: Antiviral assay on PI-resistant virus; assay type: cell-based, HIV-1; conditions: ratio EC50 resistant virus / wt virus

| Molecule | EC50 fold change PI |
| --- | --- |
| Cc1cn([C@H]2C[C@H](N=[N+]=[N-])[C@@H](CO)O2)c(=O)[nH]c1=O [AZT, Zidovudine] | 1 |
| COc1cc2c(cc1Cc1cccc(Cl)c1F)c(=O)c(C(=O)O)cn2[C@H](CO)C(C)C [EVG, Elvitegravir] | 1 |
| CC(C)(C)NC(=O)[C@@H]1CN(Cc2cccnc2)CCN1C[C@@H](O)C[C@@H](Cc1ccccc1)C(=O)N[C@H]1c2ccccc2C[C@H]1O [IDV, Indinavir] | 9 |
| Cc1ccnc2c1NC(=O)c1cccnc1N2C1CC1 [NVP, Nevirapine] | 1 |

system: NL4-3 RT M41L, D67N, T69N, K70R, T215F, K219E; assay: Antiviral assay on NRTI-resistant virus; assay type: cell-based, HIV-1; conditions: ratio EC50 resistant virus / wt virus

| Molecule | EC50 fold change NRTIs |
| --- | --- |
| Cc1cn([C@H]2C[C@H](N=[N+]=[N-])[C@@H](CO)O2)c(=O)[nH]c1=O [AZT, Zidovudine] | 88 |
| COc1cc2c(cc1Cc1cccc(Cl)c1F)c(=O)c(C(=O)O)cn2[C@H](CO)C(C)C [EVG, Elvitegravir] | 0.3 |
| CC(C)(C)NC(=O)[C@@H]1CN(Cc2cccnc2)CCN1C[C@@H](O)C[C@@H](Cc1ccccc1)C(=O)N[C@H]1c2ccccc2C[C@H]1O [IDV, Indinavir] | 1 |
| Cc1ccnc2c1NC(=O)c1cccnc1N2C1CC1 [NVP, Nevirapine] | 3 |

system: NL4-3 RT M41L, D67N, K103N, M184V, L210W, T215Y; assay: Antiviral assay on Multi-drug (NRTI + NNRTI) resistant virus; assay type: cell-based, HIV-1; conditions: ratio EC50 resistant virus / wt virus; NRTI + NNRTI mutations

| Molecule | EC50 fold change Multi-drug |
| --- | --- |
| Cc1cn([C@H]2C[C@H](N=[N+]=[N-])[C@@H](CO)O2)c(=O)[nH]c1=O [AZT, Zidovudine] | 10 |
| COc1cc2c(cc1Cc1cccc(Cl)c1F)c(=O)c(C(=O)O)cn2[C@H](CO)C(C)C [EVG, Elvitegravir] | 0.3 |
| CC(C)(C)NC(=O)[C@@H]1CN(Cc2cccnc2)CCN1C[C@@H](O)C[C@@H](Cc1ccccc1)C(=O)N[C@H]1c2ccccc2C[C@H]1O [IDV, Indinavir] | 1 |
| Cc1ccnc2c1NC(=O)c1cccnc1N2C1CC1 [NVP, Nevirapine] | 14 |

system: NL4-3 RT K103N, Y181C; assay: Antiviral assay on NNRTI-resistant virus; assay type: cell-based, HIV-1; conditions: ratio EC50 resistant virus / wt virus

| Molecule | EC50 fold change NNRTIs |
| --- | --- |
| Cc1cn([C@H]2C[C@H](N=[N+]=[N-])[C@@H](CO)O2)c(=O)[nH]c1=O [AZT, Zidovudine] | 0.1 |
| COc1cc2c(cc1Cc1cccc(Cl)c1F)c(=O)c(C(=O)O)cn2[C@H](CO)C(C)C [EVG, Elvitegravir] | 1 |
| CC(C)(C)NC(=O)[C@@H]1CN(Cc2cccnc2)CCN1C[C@@H](O)C[C@@H](Cc1ccccc1)C(=O)N[C@H]1c2ccccc2C[C@H]1O [IDV, Indinavir] | 1 |
| Cc1ccnc2c1NC(=O)c1cccnc1N2C1CC1 [NVP, Nevirapine] | 287 |

system: NL4-3 Integrase G140S, Q148H; assay: Antiviral assay on INSTI-resistant virus; assay type: cell-based, HIV-1; conditions: ratio EC50 resistant virus / wt virus

| Molecule | EC50 fold change INSTIs |
| --- | --- |
| Cc1cn([C@H]2C[C@H](N=[N+]=[N-])[C@@H](CO)O2)c(=O)[nH]c1=O [AZT, Zidovudine] | 0.4 |
| COc1cc2c(cc1Cc1cccc(Cl)c1F)c(=O)c(C(=O)O)cn2[C@H](CO)C(C)C [EVG, Elvitegravir] | 2036 |
| CC(C)(C)NC(=O)[C@@H]1CN(Cc2cccnc2)CCN1C[C@@H](O)C[C@@H](Cc1ccccc1)C(=O)N[C@H]1c2ccccc2C[C@H]1O [IDV, Indinavir] | 1 |
| Cc1ccnc2c1NC(=O)c1cccnc1N2C1CC1 [NVP, Nevirapine] | 1 |

system: HIV-1 LAV virions produced by HeLa-LAV cells; assay: Virions produced by compound-treated HeLa-LAV cells: p24 and infectivity; assay type: cell-based; conditions: luciferase assay in TZM cells

| Molecule | Infectivity of virions from treated HeLa-LAV cells |
| --- | --- |
| CC(C)(C)NC(=O)[C@@H]1C[C@@H]2CCCC[C@@H]2CN1C[C@@H](O)[C@H](Cc1ccccc1)NC(=O)[C@H](CC(N)=O)NC(=O)c1ccc2ccccc2n1 [SQV, Saquinavir, reference compound] | strong virus infectivity defects |

system: HIV-1 NL4-3 wt; assay: not given; assay type: cell-based; conditions: not given

| Molecule | Infectivity of NL4-3 wt virus produced in presence of compound |
| --- | --- |
| CC(C)(C)NC(=O)[C@@H]1C[C@@H]2CCCC[C@@H]2CN1C[C@@H](O)[C@H](Cc1ccccc1)NC(=O)[C@H](CC(N)=O)NC(=O)c1ccc2ccccc2n1 [SQV, Saquinavir, reference compound] | sensitive to and inactivated |

system: NL4-3 IN T174I mutant virus; assay: not given; assay type: cell-based, HIV-1; conditions: not given

| Molecule | Infectivity of NL4-3 IN T174I virus produced in presence of compound |
| --- | --- |
| CC(C)(C)NC(=O)[C@@H]1C[C@@H]2CCCC[C@@H]2CN1C[C@@H](O)[C@H](Cc1ccccc1)NC(=O)[C@H](CC(N)=O)NC(=O)c1ccc2ccccc2n1 [SQV, Saquinavir, reference compound] | sensitive to and inactivated |

biological target: His6-IN (HIV-1 NL4-3 integrase wild type, from pINSD.His) (HIV-1 NL4-3); assay: SEC; Superdex 200 10/300 GL, 0.4 mL/min, 50 mM HEPES pH 7.5, 1 M NaCl, 7 mM CHAPS, 5 mM MgCl2, 10 mM DTT, 10% glycerol, room temperature; His6-IN wt 21 uM or His6-IN A128T 40 uM; no compound; conditions: not given

| Molecule | stoichiometry N |
| --- | --- |
| His6-IN (HIV-1 NL4-3 integrase wild type, from pINSD.His) (enzyme) | 2 |

biological target: His6-IN (HIV-1 NL4-3 integrase wild type, from pINSD.His) (HIV-1 NL4-3); assay: SEC; Superdex 200 10/300 GL, 0.4 mL/min, 50 mM HEPES pH 7.5, 1 M NaCl, 7 mM CHAPS, 5 mM MgCl2, 10 mM DTT, 10% glycerol, room temperature; His6-IN wt 21 uM or His6-IN A128T 40 uM incubated for 10 min with 100 uM BI-D or Mut101 before injection; conditions: not given

| Molecule | stoichiometry N |
| --- | --- |
| His6-IN (HIV-1 NL4-3 integrase wild type, from pINSD.His) (enzyme) | 4 |
